US20130123358A1, “Metabolic Benefits to Butyrate as a Chronic Diet Supplement” (priority 2009, published 2013)

Tests used:
[1] = test system: obese C57BL/6J mice on HFD; test: Treatment of obese mice (16 weeks HFD) with butyrate for 5 weeks; assay type: in vivo, mouse
Method: In the above examples, butyrate was administrated together with HFD during the induction of obesity. To test butyrate in the treatment of obesity and insulin resistance, butyrate was administered to obese mice that had been on HFD for 16 weeks. Obesity was induced in C57BL/6J mice fed on HFD for 16 weeks (21 weeks in age). The obese mice were then treated with butyrate through food supplement for 5 weeks. […] In the control group, the body weight was increased by 15.8% (from 35.9 g to 41.6 g) during the same time period. Values are the means±SE (N=8 in each group). * P<0.05.
Fat content was determined in the body using NMR at the end of 5 week treatment with butyrate. Consistent with the change in body weight, the fat content was reduced by 10% in the butyrate group (FIG. 9B). At the end of 5 weeks, ITT was performed after 4 hours fast and HOMA IR was measured as described above. […] Values are the means±SE (N=8 in each group). * P<0.05.

[2] = test system: C57BL/6J mice on high fat diet; test: Energy metabolism and body composition in diet-induced obesity, butyrate started with HFD; assay type: in vivo, mouse
Method: Male C57BL/6J (4 weeks in age) and ob/ob mice (4 weeks in age) were purchased from the Jackson Laboratory (Bar Harbor, Me.). After one week quarantine, the C57BL/6J mice were fed on the high fat diet (HFD, D12331, Research Diets, New Brunswick, N.J.), which contains 58% calories in fat. The ob/ob mice were fed on Chow diet (5001, Lab Diet) that contains 13.4% calories in fat. All of the mice were housed in the animal facility with a 12:12-h light-dark cycle and constant temperature (22-24° C.). The mice were free to access water and diet. All procedures were performed in accordance with National Institute of Health guidelines for the care and use of animals and approved by the Institute Animal Care and Use Committee at the Pennington Biomedical Research Center.
Sodium butyrate was administrated through dietary supplementation. Sodium butyrate (#303410, Sigma) was incorporated into the HFD evenly through blending the diet and sodium butyrate together at 400 rpm in a food processor. Sodium butyrate (50 g) was used in 1 kg diet to reach a dose of 5% w/w. The sodium butyrate containing diet was pelleted and stored in a −20° C. freezer. Trichostatin A (TSA) (T-1052, A.G. Scientific Inc. San Diego, Calif.) was dissolved in DMSO, and diluted in 0.9% saline at 2:98 ratio. The TSA solution (200 ul) was administrated by intra-peritoneal (i.p.) injection to reach a dose of […]. The control mice were administrated with the same volume of vehicle. 50 ml of tributyrin (#113026, Sigma) was incorporated into one kilogram of Chow diet in powder to reach a dose of 5% w/w in mice.
Body composition was measured using quantitative nuclear magnetic resonance (NMR) as previously described (15). In the test, a conscious and unrestrained mouse was placed in a small tube one at a time and individually tested using a Brucker model mq10 NMR analyzer (Brucker, Canada, Milton ON, Canada). The fat and lean mass were recorded within 1 min. Measurements were made in triplicate for each mouse.
Energy expenditure, respiratory exchange ratio (RER), spontaneous physical movement, and food intake were measured simultaneously for each mouse with the Comprehensive Laboratory Animal Monitoring System (Columbus Instruments, Columbus, Ohio) as described previously (15). The temperature in the metabolic chamber was 24° C. The mice were housed individually in the metabolic chamber. After 48 h of adaptation, the data were recorded for all parameters and used in analysis of the energy metabolism.
Butyrate was initially tested for prevention of dietary obesity. In the diet-induced obesity model, the butyrate supplementation started at the beginning of high fat diet (HFD) feeding. The plain HFD was used in the control group. Calorie intake was monitored four times in the first ten weeks. After normalization with body weight, the calorie intake was reduced with the increase in age.
Energy expenditure was examined in C57BL/6J mice using the metabolic chamber at the first week and the tenth week on HFD (16 weeks in age). In this study, sodium butyrate was used at 5% w/w in HFD. […] Food intake was monitored daily for 5 days at each time point. Average daily food intake (g) was converted into K calorie and normalized with body weight (kg) and 24 hours. […] FIG. 1E illustrates the body weight of the mice over 16 weeks. FIG. 1F illustrates the body fat content as determined by NMR expressed as a percentage of body weight. FIG. 1G illustrates the body muscle content expressed as a percentage of body weight. […] Feces were collected in the cages during a 24 hr period on HFD at 12 weeks, and the total lipids were extracted and quantified (P>0.05, n=5). […] The frequency of horizontal movement was shown for day and night time at 10 wks on HFD. For FIGS. 1A-1D and 1I, the number of mice was 8 in both the control or butyrate groups. For FIGS. 1E-1G, the number of mice was 10 in both the control or butyrate group. Values given in FIGS. 1A-1I are the mean±SE. *P<0.05, **P<0.001 by Student's t test. […]

[3] = butyrate 5% w/w in HFD vs control, metabolic chamber, weeks 1 and 10
[4] = butyrate 5% w/w in HFD, NMR, change during 16 weeks

SMILES: CCCC(=O)[O-].[Na+] [sodium butyrate]
- HOMA-IR, reduction ([1]; 5-week butyrate treatment): 50%
- fasting glucose, reduction ([1]; 5-week butyrate treatment): 30%
- fasting glucose after treatment ([1]; 5-week butyrate treatment, from 131): 98.6 mg/dL
- loss of original body weight ([1]; 5-week treatment with butyrate in food): 10.2%
- ITT ([1]; end of 5-week butyrate treatment, 4 hours fast): improved significantly
- fat content, reduction ([1]; end of 5-week butyrate treatment, NMR): 10%
- body weight after treatment ([1]; end of 5-week butyrate treatment, from 37.6 g): 34.4 g
- toxicity (by food intake and physical activity) ([2]; butyrate 5% w/w in HFD): no toxicity was observed
- calorie intake ([2]; butyrate 5% w/w in HFD vs HFD control, first ten weeks): significantly higher at all of the time points
- body length (mouse growth) ([2]; butyrate 5% w/w in HFD vs control): identical between the two groups
- spontaneous physical activity ([2]; butyrate 5% w/w in HFD vs control, 10 wks on HFD, day and night): not reduced
- energy expenditure [2, 3]: elevated at the night time
- oxygen consumption [2, 3]: elevated at the night time
- respiratory exchange ratio (RER) ([2]; butyrate 5% w/w in HFD vs control, weeks 1 and 10): reduced during the day and night time
- fat content (adiposity) [2, 4]: not significantly changed
- lean mass [2, 4]: not significantly changed
- body weight ([2]; butyrate 5% w/w in HFD, change during 16 weeks): not significantly changed
- body fat content ([2]; butyrate 5% w/w in HFD, without a reduction in food intake): 10%
- hepatic steatosis ([2]; mice on high fat diet with SB, sixteen weeks): reduced
